Organism: Rattus norvegicus
Test: DrugMatrix - Regimen: Daily Repeat
Type: toxicity, organism-based, Sprague-Dawley
Design: regimen Daily Repeat, gender Male, age 6-8 weeks
Conditions: in vivo, po, 1500 mg/kg, route oral GAVAGE, dose level High, vehicle .5 % CMC; for ABSOLUTE BASOPHIL / ABSOLUTE EOSINOPHIL / ABSOLUTE LYMPHOCYTE / ABSOLUTE MONOCYTE / ABSOLUTE SEGMENTED NEUTROPHIL / BASOPHIL / EOSINOPHIL / ERYTHROCYTE COUNT / HEMATOCRIT / HEMOGLOBIN / LEUKOCYTE COUNT / LYMPHOCYTE / MEAN CORPUSCULAR HEMOGLOBIN / MEAN CORPUSCULAR HEMOGLOBIN CONCENTRATION / MEAN CORPUSCULAR VOLUME / MONOCYTE / NEUTROPHIL / NUCLEATED RED BLOOD CELLS / PLATELET COUNT: tissue Blood; for ALANINE AMINOTRANSFERASE / ALBUMIN / ALKALINE PHOSPHATASE / ASPARTATE AMINOTRANSFERASE / BLOOD UREA NITROGEN / CARBON DIOXIDE / CHLORIDE / CHOLESTEROL / CREATINE PHOSPHOKINASE / CREATININE / GLUCOSE / LACTATE DEHYDROGENASE / LIPASE / PHOSPHORUS / POTASSIUM / SODIUM / TOTAL BILIRUBIN / TOTAL PROTEIN / URIC ACID: tissue Plasma

In the case of `Nc1nc2c(c(=O)[nH]1)N(C=O)C(CNc1ccc(C(=O)N[C@@H](CCC(=O)O)C(=O)O)cc1)CN2` (stereo partly specified) [LEUCOVORIN], the “ABSOLUTE BASOPHIL” value (72 h, time 3 day) is reported as 0 CELLS/uL, the “ABSOLUTE EOSINOPHIL” value (72 h, time 3 day) is reported as 0 CELLS/uL and the “ABSOLUTE LYMPHOCYTE” value (72 h, time 3 day) is reported as 14453.33 CELLS/uL. The “ABSOLUTE MONOCYTE” value (72 h, time 3 day) was 60 CELLS/uL, the “ABSOLUTE SEGMENTED NEUTROPHIL” value (72 h, time 3 day) was 2253.33 CELLS/uL and the BASOPHIL (72 h, time 3 day) was 0%. The EOSINOPHIL (72 h, time 3 day) was 0%, the “ERYTHROCYTE COUNT” value (72 h, time 3 day) was 5.28 x10E6/uL and the HEMATOCRIT (72 h, time 3 day) was 35.03%. The HEMOGLOBIN (72 h, time 3 day) was 13.77 G/DL, the “LEUKOCYTE COUNT” value (72 h, time 3 day) was 16.77 x10E3/uL and the LYMPHOCYTE (72 h, time 3 day) was 86.33%. For the same molecule, the “MEAN CORPUSCULAR HEMOGLOBIN” value (72 h, time 3 day) was 26.07 pg, the “MEAN CORPUSCULAR HEMOGLOBIN CONCENTRATION” value (72 h, time 3 day) was 39.33 G/DL and the “MEAN CORPUSCULAR VOLUME” value (72 h, time 3 day) was 66.33 fL. The MONOCYTE (72 h, time 3 day) was 0.33%, the NEUTROPHIL (72 h, time 3 day) was 13.33% and the “NUCLEATED RED BLOOD CELLS” value (72 h, time 3 day) was 0 /100WBC. The “PLATELET COUNT” value (72 h, time 3 day) was 1212 x10E3/uL, the “ALANINE AMINOTRANSFERASE” value (72 h, time 3 day) was 44.33 u/L and the ALBUMIN (72 h, time 3 day) was 4.3 G/DL. For the same molecule, the “ALKALINE PHOSPHATASE” value (72 h, time 3 day) was 372.67 u/L, the “ASPARTATE AMINOTRANSFERASE” value (72 h, time 3 day) was 77.67 u/L and the “BLOOD UREA NITROGEN” value (72 h, time 3 day) was 11.33 mg/dL. For the same molecule, the “CARBON DIOXIDE” value (72 h, time 3 day) was 32 mmol/L, the CHLORIDE (72 h, time 3 day) was 102 MEQ/L and the CHOLESTEROL (72 h, time 3 day) was 68.33 mg/dL. For the same molecule, the “CREATINE PHOSPHOKINASE” value (72 h, time 3 day) was 183.67 u/L, the CREATININE (72 h, time 3 day) was 0.15 mg/dL and the GLUCOSE (72 h, time 3 day) was 156 mg/dL. The “LACTATE DEHYDROGENASE” value (72 h, time 3 day) was 116 u/L, the LIPASE (72 h, time 3 day) was 8.67 u/L and the PHOSPHORUS (72 h, time 3 day) was 13.4 mg/dL. The POTASSIUM (72 h, time 3 day) was 6.98 MEQ/L, the SODIUM (72 h, time 3 day) was 146.03 MEQ/L and the “TOTAL BILIRUBIN” value (72 h, time 3 day) was 0.17 mg/dL. For the same molecule, the “TOTAL PROTEIN” value (72 h, time 3 day) was 6 G/DL, the “URIC ACID” value (72 h, time 3 day) was 1.83 mg/dL and the “ABSOLUTE BASOPHIL” value (120 h, time 5 day) was 0 CELLS/uL. For the same molecule, the “ABSOLUTE EOSINOPHIL” value (120 h, time 5 day) was 46.33 CELLS/uL, the “ABSOLUTE LYMPHOCYTE” value (120 h, time 5 day) was 14356 CELLS/uL and the “ABSOLUTE MONOCYTE” value (120 h, time 5 day) was 200.33 CELLS/uL. For the same molecule, the “ABSOLUTE SEGMENTED NEUTROPHIL” value (120 h, time 5 day) was 930.67 CELLS/uL, the BASOPHIL (120 h, time 5 day) was 0% and the EOSINOPHIL (120 h, time 5 day) was 0.33%. For the same molecule, the “ERYTHROCYTE COUNT” value (120 h, time 5 day) was 5.73 x10E6/uL, the HEMATOCRIT (120 h, time 5 day) was 35.37% and the HEMOGLOBIN (120 h, time 5 day) was 14.17 G/DL. The “LEUKOCYTE COUNT” value (120 h, time 5 day) was 15.53 x10E3/uL, the LYMPHOCYTE (120 h, time 5 day) was 92.33% and the “MEAN CORPUSCULAR HEMOGLOBIN” value (120 h, time 5 day) was 24.8 pg. The “MEAN CORPUSCULAR HEMOGLOBIN CONCENTRATION” value (120 h, time 5 day) was 40.07 G/DL, the “MEAN CORPUSCULAR VOLUME” value (120 h, time 5 day) was 61.77 fL and the MONOCYTE (120 h, time 5 day) was 1.33%. For the same molecule, the NEUTROPHIL (120 h, time 5 day) was 6%, the “NUCLEATED RED BLOOD CELLS” value (120 h, time 5 day) was 0 /100WBC and the “PLATELET COUNT” value (120 h, time 5 day) was 1112.33 x10E3/uL. The “ALANINE AMINOTRANSFERASE” value (120 h, time 5 day) was 56.67 u/L, the ALBUMIN (120 h, time 5 day) was 4.3 G/DL and the “ALKALINE PHOSPHATASE” value (120 h, time 5 day) was 387 u/L. The “ASPARTATE AMINOTRANSFERASE” value (120 h, time 5 day) was 87.33 u/L, the “BLOOD UREA NITROGEN” value (120 h, time 5 day) was 16.33 mg/dL and the “CARBON DIOXIDE” value (120 h, time 5 day) was 36 mmol/L. The CHLORIDE (120 h, time 5 day) was 99.67 MEQ/L, the CHOLESTEROL (120 h, time 5 day) was 57.33 mg/dL and the “CREATINE PHOSPHOKINASE” value (120 h, time 5 day) was 288.67 u/L. For the same molecule, the CREATININE (120 h, time 5 day) was 0.2 mg/dL, the GLUCOSE (120 h, time 5 day) was 147 mg/dL and the “LACTATE DEHYDROGENASE” value (120 h, time 5 day) was 263.67 u/L. For the same molecule, the LIPASE (120 h, time 5 day) was 9 u/L, the PHOSPHORUS (120 h, time 5 day) was 12.9 mg/dL and the POTASSIUM (120 h, time 5 day) was 6.55 MEQ/L. The SODIUM (120 h, time 5 day) was 145.83 MEQ/L, the “TOTAL BILIRUBIN” value (120 h, time 5 day) was 0.2 mg/dL and the “TOTAL PROTEIN” value (120 h, time 5 day) was 6.13 G/DL. For the same molecule, the “URIC ACID” value (120 h, time 5 day) was 1.37 mg/dL.

From ChEMBL document CHEMBL3885881, “DrugMatrix”
